One test deals with BRD4. Kind of test: Auxin-inducible degradation of AID-tagged BRD4 in K562 cells (immunoblotting). The class given is cell-based, human. As to conditions: AID-tagged K562 cells expressing Tir1. Background: A western blot detects proteins with antibodies after separation by electrophoresis.
The test system of test [1] is MYC. The test can be described thus: Auxin-inducible degradation of AID-tagged MYC in K562 cells (immunoblotting). The note with it: Tir1-expressing. The class given is cell-based, human.
The test system of test [2] is MYC. The test can be described thus: Auxin-inducible degradation of AID-tagged MYC in HCT116 cells (immunoblotting). The class given is cell-based, human. The note with it: TIR1-expressing HCT116 MYC-AID cells.
For test [3], the system named is reverse transcriptases (Superscript II, Superscript III, Quant-seq RT). Kind of test: Reverse transcription of synthetic thiol-nucleotide-containing RNA followed by high-throughput sequencing. The format is biochemical. As to conditions: s^6G-containing RNA. On the procedure: Primer extension assays were essentially performed as described previously by Nilsen et al. (Cold Spring Harb Protoc. 2013, 1182-1185). Briefly, template RNA oligonucleotides (5L-let-7-3L or 5L-let-7-s^4Up9-3L; Dharmacon; see Table for sequences) were deprotected according to the instructions of the manufacturer and purified by denaturing polyacrylamide gel-elution. 100 μM purified RNA oligonucleotides were treated with 10 mM iodoacetamide (+IAA) or EtOH (−IAA) in standard reaction conditions (50% DMSO, 50 mM sodiumphosphate buffer, pH 8) for 15 min at 50° C. The reaction was stopped by addition of 20 mM DTT, followed by ethanol precipitation. RT primer (see Table for sequence) was 5′ radiolabeled using γ-^32P-ATP (Perkin-Elmer) and T4-polynucleotide kinase (NEB), followed by denaturing polyacrylamide gel-purification. 640 nM γ-^32P-RT primer was annealed to 400 nM 5L-let-7-3L or 5L-let-7-s^4Up9-3L in 2× annealing buffer (500 mM KCl, 50 mM Tris pH 8.3) in a PCR machine (3 min 95° C., 30 sec 85° C. Ramp 0.5° C./s, 5 min 25° C. Ramp 0.1° C./s). Reverse transcription was performed using Superscript II (Invitrogen), Superscript III (Invitrogen), or Quant-seq RT (Lexogen) as recommended by the manufacturer. For dideoxynucleotide reactions, a final concentration of 500 μM ddNTP (as indicated) was added to RT reactions. Upon completion, RT reactions were resuspended in formamide loading buffer (Gel loading buffer II, Thermo Fisher Scientific) and subjected to 12.5% denaturing polyacrylamide gel electrophoresis. Gels were dried, exposed to storage phosphor screen (PerkinElmer), imaged on a Typhoon TRIO variable mode imager (Amersham Biosciences), and quantified using ImageQuant TL v7.0 (GE Healthcare). […]
For sequencing analysis of synthetic RNA samples (FIG. 5) barcoded libraries were demultiplexed using Picard Tools BamIndexDecoder v1.13 allowing 0 mismatches in the barcode. […] Remaining aligned reads were converted to pileup format. […] Output table was analyzed and plotted in Excel v15.22 (Microsoft) and Prism v7.0a (GraphPad). […]

In a further test the test system is MOLM-13 cells. The test can be described thus: SLAM-seq transcriptional response to NVP-2 and JQ1 in MOLM-13 cells. The format is cell-based, human. On the procedure:
(§1) All SLAM-seq assays were performed at 60-70% confluency for adherent cells or 60% of the maximum cell density counted on a hemocytometer for suspension cells. 5-7 h prior to each assay, growth medium was aspirated and replaced. Unless stated otherwise, cells were pre-treated with indicated small molecule inhibitors or 100 μM IAA for 30 minutes to pre-establish full target inhibition or degradation. Newly synthesized RNA was labeled for indicated time spans (45′ or 60′) at a final concentration of 100 μM 4-thiouridine (s^4U, Carbosynth). Adherent cells were harvested by direct snap-freezing of plates on dry ice. Suspension cells were spun down and immediately snap-frozen. RNA extraction was performed using the RNeasy Plus Mini Kit (Qiagen). Total RNA was subjected to alkylation by iodoacetamide (Sigma, 10 mM) for 15′ and RNA was re-purified by ethanol precipitation. […]
(§2) All other SLAM-seq experiments were performed in triplicates and analyzed as follows. Differential gene expression calling was performed on raw read counts with 2 T>C conversions using DESeq2 (version 1.14.1) with default settings, and with size factors estimated on corresponding total mRNA reads for global normalization. […]

Another test addresses T1, Superscript II (Moloney murine leukemia virus, UniProt P03355, D1183G/D1242N/E1221Q).
T1 construct: purchased Thermo Fisher Scientific
Kind of test: pH-dependent reverse transcription of 5BrU-containing RNA oligonucleotide measured by sequencing. The class given is biochemical. The method, then:
Further, it has been shown that 5BrU is taken up by cells, phosphorylated, and incorporated into nascent RNA (Larsen et al., Current Protocols in Cytometry. 12 (7.12): 7.12.1-7.12.11, 2001). […] We used […] of the synthetic RNA oligonucleotide which contained a 5BrU modification at a single central position. […] The reverse transcription was performed by Superscript II (Thermo Fisher Scientific) according to the instructions of the manufacturer using the RT DNA oligonucleotide primer (5″-[…]-3″, SEQ ID NO: 9) and 5×RT buffer for which pH was adjusted to pH7, pH8, or pH9, respectively. After reverse transcription, […] reverse transcription product was subjected to PCR amplification using KAPA Real-time Library Amplification Kit (KAPA Biosystems) according to the instructions of the manufacturer, using the DNA oligonucleotides Solexa PCR Fwd (5″-[…]-3′, SEQ ID NO: 10) and Solexa IDX rev (5′-[…]-3′, SEQ ID NO: 11; NNNNNN indicates the position of the barcode-nucleotides). The amplified libraries were sequenced by high-throughput sequencing using the Illumina MiSeq platform. The conversion rates for the 5BrU nucleotide were determined by counting the frequency of nucleotide A (adenine), G (guanine), and C (cytosine) other than the expected majority readout of T (thymine) at the position of 5BrU.
The pH-dependent conversion rates of 5BrU, or T in the final readout, to A (T>A conversion) show a 1.1-fold and 1.4-fold increase with an increase of pH during reverse transcription to pH 8 and pH 9 respectively compare to the background conversion rate of 3·10^−4 at pH 7 (FIG. 37C). The T>G conversion increases by 1.2- and 1.9-fold compare to the lower background conversion rate of 1·10^−4 at pH 7. In contrast, the T>C conversion rate increases by 2.2-fold and 4.3-fold compare to the background conversion rate of 3·10^−4 at pH 7. The signature of the pH dependent changes in conversion rates is characteristic for the 5BrU in the RNA and can be used to identify the number of 5BrU which are incorporated into nascent RNA during transcription.

Another test has as its system K562 cells. Kind of test: SLAM-seq transcriptional response in K562 cells. The format is cell-based, human. The method, then: as §1, §2
The next test relates to MV4-11. The test can be described thus: SLAM-seq transcriptional response in MV4-11 cells. The class given is cell-based, human. The note with it: high-dose (1 or 5 μM). The method, then: as §1, §2
Test [4] deals with Pol2-S2 phosphorylation. Kind of test: Pol2-S2 phosphorylation after BETi treatment in K562 cells. The format is cell-based, human. As to conditions: high-dose (1 or 5 μM). The method, then: (§3) Chemiluminescent detection of primary antibodies was performed using HRP-conjugated secondary antibodies (Cell Signaling Technology, catalog numbers #7074, #7076 and #7077). Alternatively, fluorescence detection of rabbit and mouse primary antibodies was performed on an Odyssey CLx Imaging System (LI-COR Biosciences) using secondary antibodies IRDye 680RD Goat anti-Rabbit IgG and IRDye 800CW Goat anti-Mouse IgG (LI-COR Biosciences).
(§4) While these findings are in line with the promiscuous binding of BRD4 to active TSS and its physical interaction with core transcriptional machinery, they contrast selective effects observed after BETi treatment in conventional expression analysis. To define immediate transcriptional effects of BETi and compare them to BRD4 degradation, we performed SLAM-seq following treatment with different doses of the BETi JQ1 in K562 cells and the acute myeloid leukemia (AML) cell line MV4-11.

Test [5] deals with Pol2-S2 phosphorylation. The test can be described thus: Pol2-S2 phosphorylation after BETi treatment in MV4-11 cells. As to conditions: high-dose (1 or 5 μM). The class given is cell-based, human. On the procedure:
as §3, §4

In the case of `O=C(O)Cc1c[nH]c2ccccc12` [auxin, indole-3-acetic acid], in the test with BRD4, the “time to near complete degradation of BRD4” value was ≤ 30 ′. Besides, the “time to degradation of MYC” value in the test on MYC [1] is given as “less than 30 ′”. For the same compound, in the test with MYC [2], the “time to complete degradation of MYC” value is recorded as “less than 30 ′”.
Take 4-thiouridine [s^4U]: the conversion observed entry in test [3] is reported as “G to A conversion”.
As for `COC[C@@H](C)NC1CCC(Nc2cc(-c3cccc(NCC4(C#N)CCOCC4)n3)c(Cl)cn2)CC1` (some centres unmarked) [NVP-2], the transcriptional response result is listed as “globally suppressed transcription” in the test on MOLM-13 cells (high-dose, 60 nM) and “selective transcriptional responses” with MOLM-13 cells (intermediate dose, 6 nM).
For the compound `O=c1[nH]c(=O)n([C@@H]2O[C@H](CO)[C@@H](O)[C@H]2O)cc1Br` [5BrU, 5-Bromouridine], on Superscript II (pH 7), the “T>A background conversion rate” value is 3·10^−4, the “T>C background conversion rate” value is 3·10^−4 and the “T>G background conversion rate” value is on record as 1·10^−4. Also, at Superscript II (pH 8), the “increase of T>A conversion rate relative to pH 7” value is 1.1 fold, the “increase of T>C conversion rate relative to pH 7” value turned out to be 2.2 fold and the “increase of T>G conversion rate relative to pH 7” value was found to be 1.2 fold. Also, at Superscript II (pH 9), the “increase of T>A conversion rate relative to pH 7” value was determined as 1.4 fold, the “increase of T>C conversion rate relative to pH 7” value is recorded as 4.3 fold and the “increase of T>G conversion rate relative to pH 7” value stood at 1.9 fold.
As for `Cc1sc2c(c1C)C(c1ccc(Cl)cc1)=N[C@@H](CC(=O)OC(C)(C)C)c1nnc(C)n1-2` [JQ1], the direct transcriptional response result in the test on K562 cells (200 nM) is recorded as “selective deregulation of a small number of transcripts”; with K562 cells (high-dose (1 or 5 μM)), “broadly suppressed transcription”; with MV4-11, “broadly suppressed transcription”. Besides, the Pol2-S2 phosphorylation entry in the test on Pol2-S2 phosphorylation [4] and in the test with Pol2-S2 phosphorylation [5] was “globally reduced Pol2-S2 phosphorylation” throughout.

The record behind these values is patent US11859248B2, “Nucleic acid modification and identification method” (IMBA—INSTITUT FÜR MOLEKULARE BIOTECHNOLOGIE GMBH, priority 2017, dated 2024).
